Assay results reported in the NIST ThermoML archive (doi:10.1021/je301122r).
Numbers after ± are expanded uncertainties.

Key:
[1] = 293.15 K; 101.33 kPa; Liquid; Vibrating tube method
[2] = refractive index (Na D-line) (dimensionless); conditions: 293.15 K; 101.33 kPa; Liquid; Standard Abbe refractometry

Row | SMILES | mass density [1] [kg/m3] | refractive index [2]
1 | CCc1ccccc1C [1-ethyl-2-methylbenzene] | 880.66 ± 0.13 | 1.5045 ± 0.0007
2 | Cc1ccc(C)c(C)c1 [1,2,4-trimethylbenzene] | 875.78 ± 0.13 | 1.5047 ± 0.0007
